Test results from patent US8969055B2 (priority 2009, dated 2015).
Read-outs that look alike come from different tables or passages of the source.

Experiments:
4KO E. coli strain = settings: for E. coli Growth Rate (μ): 4KO E. coli, BFM + betaine, 30° C.
Procedure: From a frozen vial, 25 mL of seed culture was grown in Difco LB broth, Miller medium, purchased from BD Laboratories (Becton & Dickinson and Company, Sparks, Md., 21152, USA) at 30° C., 200 RPM. […] Samples were withdrawn at defined time points to monitor biomass growth as measured by OD600. Growth rates were calculated from the biomass time profiles by fitting exponential growth rate equations.

[1] = Example 3 fermentation, oleyl alcohol
Procedure: Filter sterilized solutions of ampicillin, thiamine hydrochloride, and glucose were added to the fermentor medium, post sterilization, to a final concentration of 100 mg/L, 5 mg/L and 20 g/L respectively. Fermentations were run using a 1 L autoclavable bioreactor, Bio Console ADI 1025 (Applikon, Inc, Holland) with a working volume of 900 mL. The temperature was maintained at 30° C. during the entire fermentation and the pH was maintained at 6.8 using ammonium hydroxide. Following inoculation of the sterile fermentation medium with seed culture (2-10 vol %), the fermentor was operated aerobically at a 30% dissolved oxygen (DO) set point with 0.3 vvm of air flow by automatic control of the agitation rate (rpm). […] Four hours post induction, fermentation conditions were switched to microaerobic conditions by decreasing the airflow to 0.13 slpm and setting the DO set point to 3-5%. […] Glucose was added as a bolus (50 wt % stock solution) to the fermentor on a need basis to keep levels of glucose between 20 g/L and 2 g/L.
Glucose levels were monitored using HPLC and YSI as described above herein.

[2] = oleyl alcohol/BFM, 30° C.
Text: The aqueous and organic phases in each flask were separated by decantation.
Each data point corresponding to a specified level of electrolyte as shown in Table 3 and Table 4 was repeated twice and values for Kp reported as the average of the two flasks.

[3] = Activity of enzyme expressed from sadB gene in cell-free extracts of Mach1/pTrc99a::sadB; format: biochemical, Achromobacter xylosoxidans; settings: isobutyraldehyde as the standard
Procedure: The sadB coding region was then cloned into the vector pTrc99a (Amann et al., Gene 69: 301-315, 1988). The pCR4Blunt::sadB was digested with EcoRI, releasing the sadB fragment, which was ligated with EcoRI-digested pTrc99a to generate pTrc99a::sadB. This plasmid was transformed into E. coli Mach 1 cells and the resulting transformant was named Mach1/pTrc99a::sadB. The activity of the enzyme expressed from the sadB gene in these cells was determined to be 3.5 mmol/min/mg protein in cell-free extracts when analyzed using isobutyraldehyde as the standard.

In the case of O=S(=O)([O-])[O-].[Na+].[Na+] [Na2SO4, Sodium sulfate], the “drop in growth rate” value (4KO E. coli strain; 1M salt concentration) is reported as “greater than 80%”, the “E. coli Growth Rate (μ)” value (4KO E. coli strain; Na2SO4 added 0.03 mole/L, total salts 0.17 moles/L) is reported as 0.79 h⁻¹ and the “E. coli Growth Rate (μ)” value (4KO E. coli strain; Na2SO4 added 0.07 mole/L, total salts 0.21 moles/L) is reported as 0.79 h⁻¹. The “E. coli Growth Rate (μ)” value (4KO E. coli strain; Na2SO4 added 0.15 mole/L, total salts 0.29 moles/L) was 0.79 h⁻¹, the “E. coli Growth Rate (μ)” value (4KO E. coli strain; Na2SO4 added 0.22 mole/L, total salts 0.36 moles/L) was 0.74 h⁻¹ and the “E. coli Growth Rate (μ)” value (4KO E. coli strain; Na2SO4 added 0.29 mole/L, total salts 0.43 moles/L) was 0.69 h⁻¹. For the same molecule, the “E. coli Growth Rate (μ)” value (4KO E. coli strain; Na2SO4 added 0.44 mole/L, total salts 0.58 moles/L) was 0.60 h⁻¹, the “E. coli Growth Rate (μ)” value (4KO E. coli strain; Na2SO4 added 0.67 mole/L, total salts 0.81 moles/L) was 0.55 h⁻¹ and the “E. coli Growth Rate (μ)” value (4KO E. coli strain; Na2SO4 added 1.00 mole/L, total salts 1.14 moles/L) was 0.14 h⁻¹. For the same molecule, the “E. coli Growth Rate (μ)” value (4KO E. coli strain; Na2SO4 added 1.33 mole/L, total salts 1.47 moles/L) was “Negligible growth”, the “E. coli Growth Rate (μ)” value (4KO E. coli strain; Na2SO4 added 2.00 mole/L, total salts 2.14 moles/L) was “Negligible Growth” and the “loss of growth rate compared to no electrolyte control” value (4KO E. coli strain; about 0.67 M Na2SO4 (total salt level of 0.81 M)) was 30%.

For Isobutanol, the “Kp [Conc in OA phase]/[Conc in Aq Phase]” value ([1]; Na2SO4 added 0 moles/L, total salts 0.05 moles/L) was 3.1, the “Kp [Conc in OA phase]/[Conc in Aq Phase]” value ([1]; Na2SO4 added 0.28 moles/L, total salts 0.33 moles/L) was 4.5 and the “Kp [Conc in OA phase]/[Conc in Aq Phase]” value ([1]; Na2SO4 added 0.42 moles/L, total salts 0.47 moles/L) was 5.4. For the same molecule, the Kp ([2]; Na2SO4 added 0.00 moles/L, total salts 0.14 moles/L) was 4.80, the Kp ([2]; Na2SO4 added 0.03 moles/L, total salts 0.17 moles/L) was 5.03 and the Kp ([2]; Na2SO4 added 0.07 moles/L, total salts 0.21 moles/L) was 5.25. It also gave a Kp ([2]; Na2SO4 added 0.15 moles/L, total salts 0.29 moles/L) of 5.78, a Kp ([2]; Na2SO4 added 0.22 moles/L, total salts 0.36 moles/L) of 6.37 and a Kp ([2]; Na2SO4 added 0.29 moles/L, total salts 0.43 moles/L) of 7.12. It also gave a Kp ([2]; Na2SO4 added 0.44 moles/L, total salts 0.58 moles/L) of 8.34, a Kp ([2]; Na2SO4 added 0.67 moles/L, total salts 0.81 moles/L) of 10.50 and a Kp ([2]; Na2SO4 added 1.00 moles/L, total salts 1.14 moles/L) of 15.95. For the same molecule, the Kp ([2]; Na2SO4 added 1.33 moles/L, total salts 1.47 moles/L) was 24.68, the Kp ([2]; Na2SO4 added 2.00 moles/L, total salts 2.14 moles/L) was 60.99 and the Kp ([2]; NaCl added 0.00 moles/L, total salt 0.14 moles/L) was 4.87. The Kp ([2]; NaCl added 0.01 moles/L, total salt 0.15 moles/L) was 4.87, the Kp ([2]; NaCl added 0.04 moles/L, total salt 0.18 moles/L) was 4.89 and the Kp ([2]; NaCl added 0.07 moles/L, total salt 0.21 moles/L) was 4.95. It also gave a Kp ([2]; NaCl added 0.11 moles/L, total salt 0.25 moles/L) of 5.00, a Kp ([2]; NaCl added 0.14 moles/L, total salt 0.28 moles/L) of 5.00 and a Kp ([2]; NaCl added 0.21 moles/L, total salt 0.35 moles/L) of 5.22. The Kp ([2]; NaCl added 0.33 moles/L, total salt 0.47 moles/L) was 5.04, the Kp ([2]; NaCl added 0.67 moles/L, total salt 0.81 moles/L) was 5.91 and the Kp ([2]; NaCl added 1.00 moles/L, total salt 1.14 moles/L) was 6.88. It also gave a Kp ([2]; NaCl added 1.33 moles/L, total salt 1.47 moles/L) of 8.06.

B1: enzyme expressed from the sadB gene: butanol dehydrogenase from Achromobacter xylosoxidans (protein SEQ ID NO: 10) (protein)
chain: MKALVYHGDHKISLEDKPKPTLQKPTDVVVRVLKTTICGTDLGIYKGKNPEVADGRILGHEGVGVIEEVGESVTQFKKGDKVLISCVTSCGSCDYCKKQLYSHCRDGGWILGYMIDGVQAEYVRIPHADNSLYKIPQTIDDEIAVLLSDILPTGHEIGVQYGNVQPGDAVAIVGAGPVGMSVLLTAQFYSPSTIIVIDMDENRLQLAKELGATHTINSGTENVVEAVHRIAAEGVDVAIEAVGIPATWDICQEIVKPGAHIANVGVHGVKVDFEIQKLWIKNLTITTGLVNTNTTPMLMKVASTDKLPLKKMITHRFELAEIEHAYQVFLNGAKEKAMKIILSNAGAA
modifications: Achromobacter xyloxidans
For B1, the “activity of the enzyme” value [3] was 3.5 mmol/min/mg protein.
